In patent US9198451B2, “Aroma composition to reduce or suppress undesirable bitter and astringent taste impressions of sweeteners” (SYMRISE AG, priority 2008, dated 2015):
Counter-ions that a name gives are not always drawn.

Test: Solubility of the salts (saturated solution, filtering, HPLC determination of homoeriodictyol content)
Type: physicochemical
Protocol: The solubility of the homoeriodictyol sodium salt and the salts produced in Example 1 and Example 2 is determined by the production of a saturated solution, filtering of this and then HPLC determination of the homoeriodictyol content.

Compound: COc1cc([C@@H]2CC(=O)c3c(O)cc(O)cc3O2)ccc1O [Homoeriodictyol sodium salt, reference compound]
- solubility (water containing 1.5 g/l citric acid, aqueous buffer, thermodynamic from solid, saturated solution, filtered, HPLC): 3800 µg/mL
- Solubility in water (saturated solution, filtered, HPLC, sodium salt): 2800 µg/mL

Compound: COc1cc([C@@H]2CC(=O)c3c(O)cc(O)cc3O2)ccc1O [Example 2, Homoeriodictyol Potassium Calcium Salt]
- Solubility in water, containing 1.5 g/l citric acid (water containing 1.5 g/l citric acid, saturated solution, filtered, HPLC, Potassium Calcium Salt): 5400 µg/mL
- Solubility in water (saturated solution, filtered, HPLC, Potassium Calcium Salt): 10000 µg/mL

Compound: COc1cc([C@@H]2CC(=O)c3c(O)cc(O)cc3O2)ccc1O [Example 1, homoeriodictyol potassium salt]
- solubility compared with pure homoeriodictyol sodium salt: better solubility
- Solubility in water, containing 1.5 g/l citric acid (water containing 1.5 g/l citric acid, saturated solution, filtered, HPLC, potassium salt): 5100 µg/mL
- Solubility in water (saturated solution, filtered, HPLC, potassium salt): 7000 µg/mL
